From patent publication US20150087622A1, “NEW METHOD OF USE OF A PESTICIDE” (SYNGENTA PARTICIPATIONS AG, priority 2012, published 2015)
Where two headings read alike, the source gives them in different places.

How the values were obtained:
Diabrotica balteata = assay: Transovarial effects on Diabrotica balteata adults fed on sprayed bean plants (% egg mortality); assay type: in vivo; conditions: for mortality at 10 ppm / mortality at 25 ppm / mortality at 50 ppm: Diabrotica balteata
Experimental: The following IGRs in Table 1 were tested for their transovarial effects on Diabrotica balteata by observing percentage egg mortality.
Bean plants (Phaseolus vulgaris, var. Amata) were treated in an automatic spray chamber (ARO-1) with around 500 l/ha. After drying of the spray deposits, plants were placed in gauze cages and infested with newly hatched (0-24 h old) Diabrotica balteata adults. After seven days, treated plants were removed and replaced by non-treated plants. From day seven to day 38 eggs were collected in three-day intervals, counted and checked on number of hatched larvae (% egg mortality). Percentage egg mortality was calculated as the number of unhatched eggs per total number of eggs laid.

Colorado potato beetle = conditions: cited from earlier work
Spodoptera frugiperda = assay: Foliar spray application on cotton, larval mortality of Spodoptera frugiperda; assay type: in vivo; conditions: 4 DAT (days after treatment)
Description: For example on both Spodoptera frugiperda and Plutella xylostella similar activities were obtained for the same rates: […]

[1] = egg laying period 1, read-out: % egg mortality: on egg laying period 1
[2] = egg laying period 2, read-out: % egg mortality: on egg laying period 2
[3] = egg laying period 3, read-out: % egg mortality: on egg laying period 3
[4] = egg laying period 4, read-out: % egg mortality: on egg laying period 4
[5] = egg laying period 5, read-out: % egg mortality: on egg laying period 5
[6] = egg laying period 6, read-out: % egg mortality: on egg laying period 6
[7] = egg laying period 7, read-out: % egg mortality: on egg laying period 7
[8] = egg laying period 8, read-out: % egg mortality: on egg laying period 8
[9] = egg laying period 9, read-out: % egg mortality: on egg laying period 9
[10] = egg laying period 10, read-out: % egg mortality: on egg laying period 10
[11] = egg laying period 11, read-out: % egg mortality: on egg laying period 11
[12] = egg laying period 12, read-out: % egg mortality: on egg laying period 12

O=C(NC(=O)c1c(F)cccc1F)Nc1ccc(OC(F)(F)C(F)OC(F)(F)F)c(Cl)c1 (single isomer, unassigned; (+)) [Rimon, (+)-I-[3-chloro-4-(1,1,2-trifluoro-2-trifluoromethoxyethoxy)phenyl]-3-(2,6-difluorobenzoyl)urea]
total number of sterilised (unhatched) eggs, considered over the whole test period (Diabrotica balteata; 5 g AI ha^-1): ≈ 25% | total number of sterilised (unhatched) eggs, considered over the whole test period (Diabrotica balteata; 12.5 g AI ha^-1): ≈ 25% | total number of sterilised (unhatched) eggs, considered over the whole test period (Diabrotica balteata; 25 g AI ha^-1): ≈ 90% | days of effect (egg hatch inhibition) after a single foliar treatment (Diabrotica balteata; 50 g AI/ha during adult feeding on the crop plant): up to 21 days | mortality at 10 ppm (Diabrotica balteata; [1]): 100% | mortality at 10 ppm (Diabrotica balteata; [2]): 100% | mortality at 10 ppm (Diabrotica balteata; [3]): 99% | mortality at 10 ppm (Diabrotica balteata; [4]): 50% | mortality at 10 ppm (Diabrotica balteata; [5]): 10% | mortality at 10 ppm (Diabrotica balteata; [6]): 13% | mortality at 10 ppm (Diabrotica balteata; [7]): 10% | mortality at 10 ppm (Diabrotica balteata; [8]): 11% | mortality at 10 ppm (Diabrotica balteata; [9]): 18% | mortality at 10 ppm (Diabrotica balteata; [10]): 9% | mortality at 10 ppm (Diabrotica balteata; [11]): 9% | mortality at 10 ppm (Diabrotica balteata; [12]): 12% | mortality at 25 ppm (Diabrotica balteata; [1]): 100% | mortality at 25 ppm (Diabrotica balteata; [2]): 100% | mortality at 25 ppm (Diabrotica balteata; [3]): 100% | mortality at 25 ppm (Diabrotica balteata; [4]): 93% | mortality at 25 ppm (Diabrotica balteata; [6]): 25% | mortality at 25 ppm (Diabrotica balteata; [7]): 14% | mortality at 25 ppm (Diabrotica balteata; [9]): 22% | mortality at 25 ppm (Diabrotica balteata; [10]): 7% | mortality at 25 ppm (Diabrotica balteata; [11]): 0% | mortality at 25 ppm (Diabrotica balteata; [12]): 4% | mortality at 50 ppm (Diabrotica balteata; [2]): 100% | mortality at 50 ppm (Diabrotica balteata; [3]): 100% | mortality at 50 ppm (Diabrotica balteata; [4]): 100% | mortality at 50 ppm (Diabrotica balteata; [5]): 100% | mortality at 50 ppm (Diabrotica balteata; [6]): 100% | mortality at 50 ppm (Diabrotica balteata; [7]): 100% | mortality at 50 ppm (Diabrotica balteata; [8]): 100% | mortality at 50 ppm (Diabrotica balteata; [9]): 92% | mortality at 50 ppm (Diabrotica balteata; [10]): 29% | mortality at 50 ppm (Diabrotica balteata; [11]): 96% | mortality at 50 ppm (Diabrotica balteata; [12]): 41% | Spray interval (Diabrotica balteata; Rate 5 g AI/ha): 7 days | Spray interval (Diabrotica balteata; Rate 12.5 g AI/ha): 10 days | Spray interval (Diabrotica balteata; Rate 25 g AI/ha): 21 days | rank for transovarial activity on Diabrotica balteata (Diabrotica balteata; among the IGRs tested): by far the best compound | Transovarial effects on treated adults of Diabrotica balteata (Diabrotica balteata; at the used dose rates): Transovarial effects can be observed | ability to economically stop egg hatching in Colorado potato beetle (Colorado potato beetle; 25 g AI ha^-1 (Cutler et al.)): insufficient | viability of Colorado potato beetle eggs (Colorado potato beetle; adults feeding on novaluron-treated potato leaves, 87 g AI ha^-1 (Alyokhin et al.)): reduced viability | time of feeding on untreated leaves after which the effect reverses (Colorado potato beetle; after 87 g AI ha^-1 (Alyokhin et al.)): 48 to 96 h | LC50 (Spodoptera frugiperda): LC50 = 1.1 ppm
